# Data published in ChEMBL document CHEMBL3994607, “Synthesis of new sarsasapogenin derivatives with cytotoxicity and apoptosis-inducing activities in human breast cancer MCF-7 cells” (Eur J Med Chem, 2017).
# Assays:
# Type in all cases: functional, cell-based
# A549 = assay: Cytotoxicity against human A549 cells assessed as decrease in cell proliferation after 48 hrs by MTT colorimetric assay; conditions: A549, 48 h
# HepG2 = assay: Cytotoxicity against human HepG2 cells assessed as decrease in cell proliferation after 48 hrs by MTT colorimetric assay; conditions: HepG2, 48 h
# MCF7 = assay: Cytotoxicity against human MCF7 cells assessed as decrease in cell proliferation after 48 hrs by MTT colorimetric assay; conditions: Homo sapiens, MCF7, 48 h
# Hep 3B2 = assay: Cytotoxicity against human Hep3B cells assessed as decrease in cell proliferation after 48 hrs by MTT colorimetric assay
# U-251 = assay: Cytotoxicity against human U251 cells assessed as decrease in cell proliferation after 48 hrs by MTT colorimetric assay; conditions: U-251, 48 h
# Bcap37 = assay: Cytotoxicity against human Bcap37 cells assessed as decrease in cell proliferation after 48 hrs by MTT colorimetric assay; conditions: Bcap37, 48 h
SMILES,IC50 (A549) [µM],IC50 (HepG2) [µM],IC50 (MCF7) [µM],IC50 (Hep 3B2) [µM],IC50 (U-251) [µM],IC50 (Bcap37) [µM]
CCN(CC)C[C@@H](C)CC[C@H]1O[C@H]2C[C@H]3[C@@H]4CC[C@@H]5C[C@@H](OCc6ccc(F)cc6)CC[C@]5(C)[C@H]4CC[C@]3(C)[C@H]2[C@@H]1C,18,26.4,45.2,> 100,> 100,> 100
CO[C@H]1CC[C@@]2(C)[C@H](CC[C@@H]3[C@@H]2CC[C@]2(C)[C@H]4[C@H](C)[C@@H](CC[C@@H](C)CN5CCNCC5)O[C@H]4C[C@@H]32)C1,,35.5,,,,
COc1ccc(CO[C@H]2CC[C@@]3(C)[C@H](CC[C@@H]4[C@@H]3CC[C@]3(C)[C@H]5[C@H](C)[C@@H](CC[C@H](C)CN6CCCC6)O[C@H]5C[C@@H]43)C2)cc1,> 100,> 100,> 100,69.9,> 100,> 100
COc1ccc(CO[C@H]2CC[C@@]3(C)[C@H](CC[C@@H]4[C@@H]3CC[C@]3(C)[C@H]5[C@H](C)[C@@H](CC[C@H](C)CN6CCN(C)CC6)O[C@H]5C[C@@H]43)C2)cc1,6.78,21.4,3.74,> 100,8.37,9.12
O=c1[nH]cc(F)c(=O)[nH]1 [FLUOROURACIL],,10.2,,,48.7,
C[C@@H](CC[C@H]1O[C@H]2C[C@H]3[C@@H]4CC[C@@H]5C[C@@H](OCc6ccccc6)CC[C@]5(C)[C@H]4CC[C@]3(C)[C@H]2[C@@H]1C)CN1CCN(C)CC1,> 100,52.3,> 100,70.8,> 100,> 100
C[C@H](CO)CC[C@H]1O[C@H]2C[C@H]3[C@@H]4CC[C@@H]5C[C@@H](OCc6ccc(F)cc6)CC[C@]5(C)[C@H]4CC[C@]3(C)[C@H]2[C@@H]1C,25.1,14.5,44.1,11.7,38.8,97.3
CO[C@H]1CC[C@@]2(C)[C@H](CC[C@@H]3[C@@H]2CC[C@]2(C)[C@H]4[C@H](C)[C@@H](CC[C@@H](C)CN5CCCC5)O[C@H]4C[C@@H]32)C1,,4.24,,,,
C[C@H]1CC[C@@]2(OC1)O[C@H]1C[C@H]3[C@@H]4CC[C@@H]5C[C@@H](O)CC[C@]5(C)[C@H]4CC[C@]3(C)[C@H]1[C@@H]2C [SARSASAPOGENIN],38.1,40.3,49.2,> 100,> 100,> 100
C[C@@H](CC[C@H]1O[C@H]2C[C@H]3[C@@H]4CC[C@@H]5C[C@@H](OCc6ccccc6)CC[C@]5(C)[C@H]4CC[C@]3(C)[C@H]2[C@@H]1C)CN1CCCC1,27.1,30.4,37.6,26.8,23.6,36
